# Source: article PMC10188607, “Quaternization of high molecular weight chitosan for increasing intestinal drug absorption using Caco-2 cells as an in vitro intestinal model” (Scientific Reports, 2023)
# Assays:
# Caco-2 monolayers = test: TEER measurement of tight junction integrity in Caco-2 monolayers; type: cell-based, Human; details: inhibitor pre-incubated 30 min; for effect of inhibitor on 600-HPTChC65-mediated TEER reduction / tight junction opening: 0.005% (w/v) 600-HPTChC65, 2-h treatment; for effect of inhibitor on chitosan-mediated TEER reduction / tight junction opening: 0.005% (w/v) 600 kDa chitosan, 2-h treatment
# Experimental: Human colon adenocarcinoma Caco-2 cell line was obtained from the American Type Culture Collection (Manassas, VA, USA). The cells were maintained in complete medium (CM; Dulbeco's modified Eagle's medium supplemented with 10% (v/v) fetal bovine serum, 100 units/mL penicillin, 100 µg/mL streptomycin, 1% (v/v) non-essential amino acids and 2 mM L-glutamine) at 37 °C in a humidified atmosphere of 5% CO2. Cells were grown at a density of 6 × 10^4 and 1.5 × 10^5 cells/cm^2 on a transwell insert (0.4 µm pore size; Corning Life Sciences, Tewksbury, MA, USA) for 21 days and 14 days in paracellular and transcellular experiments, respectively. At the start of each experiment, the integrity of the Caco-2 monolayer was assessed by measurement of the transepithelial electrical resistance (TEER), using a chopstick-like electrode connected to a Millicell-ERS® (Millipore, Bedford, MA, USA). Cell monolayers with a TEER value of greater than 300 Ω cm^2 were used in each experiment.
# The 21 day-aged Caco-2 monolayers were incubated with transport buffers, i.e., 10 mM MES-HBSS, pH 6.5 on the apical side (the donor compartment) and 25 mM HEPES-HBSS, pH 7.4 on the basolateral side (the receiver compartment) for 30 min at 37 °C. Subsequently, the test chitosan in 1% (w/v) acetic acid was added to the apical side and incubated at 37 °C on an orbital shaker for 4 h. To investigate the tight junction signaling pathway, the monolayers were incubated with either ML-7, RO-318220 or genistein for 30 min at 37 °C prior to addition of the test chitosan. The TEER values were monitored at the indicated time points during the treatment period.
# For the measurement of tight junction recovery, each monolayer was incubated with the test chitosan for 1 h prior to replacement with CM for another 24 h in a CO2 incubator at 37 °C. The TEER value was measured at the indicated time points during the 24-h chitosan withdrawal period.
# [1] = target: recombinant human P-gp membranes (Homo sapiens, UniProt P08183)
# Experimental: Effect of 600-HPTChC65 on P-gp ATPase activity was determined in recombinant human P-gp membranes with the use of the P-gp-Glo™ assay (Promega, Madison, Wisconsin), according to the manufacturer’s instruction.
# recombinant human P-gp membranes, sequence (P08183 whole entry): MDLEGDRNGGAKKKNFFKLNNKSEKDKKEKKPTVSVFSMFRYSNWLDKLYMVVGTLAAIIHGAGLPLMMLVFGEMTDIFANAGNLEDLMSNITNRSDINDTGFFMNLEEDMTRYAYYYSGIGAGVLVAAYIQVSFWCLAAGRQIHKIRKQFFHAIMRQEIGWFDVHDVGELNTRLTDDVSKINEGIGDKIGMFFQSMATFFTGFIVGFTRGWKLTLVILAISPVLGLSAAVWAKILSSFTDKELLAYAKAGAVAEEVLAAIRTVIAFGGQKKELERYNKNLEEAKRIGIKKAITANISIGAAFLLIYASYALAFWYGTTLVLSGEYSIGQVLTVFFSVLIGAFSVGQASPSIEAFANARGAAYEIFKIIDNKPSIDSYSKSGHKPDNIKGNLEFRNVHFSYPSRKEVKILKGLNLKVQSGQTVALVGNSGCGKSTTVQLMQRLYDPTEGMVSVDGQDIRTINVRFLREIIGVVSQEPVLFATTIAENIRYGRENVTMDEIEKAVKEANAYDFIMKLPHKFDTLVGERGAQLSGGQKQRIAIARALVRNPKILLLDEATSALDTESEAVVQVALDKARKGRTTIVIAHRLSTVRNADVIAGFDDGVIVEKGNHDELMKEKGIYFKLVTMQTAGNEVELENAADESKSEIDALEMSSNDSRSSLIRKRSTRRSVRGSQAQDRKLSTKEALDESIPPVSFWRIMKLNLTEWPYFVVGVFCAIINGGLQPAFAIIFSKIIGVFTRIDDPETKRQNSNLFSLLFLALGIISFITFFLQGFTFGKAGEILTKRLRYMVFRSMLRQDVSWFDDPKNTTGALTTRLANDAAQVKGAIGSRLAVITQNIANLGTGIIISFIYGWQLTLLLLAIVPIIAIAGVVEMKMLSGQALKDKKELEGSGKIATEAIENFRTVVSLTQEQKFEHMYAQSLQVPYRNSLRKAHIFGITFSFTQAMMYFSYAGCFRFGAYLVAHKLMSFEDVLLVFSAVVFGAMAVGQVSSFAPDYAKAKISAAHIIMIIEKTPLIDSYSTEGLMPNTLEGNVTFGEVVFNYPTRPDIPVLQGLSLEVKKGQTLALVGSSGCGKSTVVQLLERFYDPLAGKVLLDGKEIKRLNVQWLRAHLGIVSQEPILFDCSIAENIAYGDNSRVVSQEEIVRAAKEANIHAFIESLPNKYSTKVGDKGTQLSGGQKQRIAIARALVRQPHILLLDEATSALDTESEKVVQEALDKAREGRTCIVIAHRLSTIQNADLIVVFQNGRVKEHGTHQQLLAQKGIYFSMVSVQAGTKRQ
Compound,effect of inhibitor on 600-HPTChC65-mediated TEER reduction / tight junction opening (Caco-2 monolayers),effect of inhibitor on chitosan-mediated TEER reduction / tight junction opening (Caco-2 monolayers),P-gp ATPase activity (change in luminescence signal) [1]
O=S(=O)(c1cccc2c(I)cccc12)N1CCCNCC1 [ML-7],did not prevent,partially prevent,
Cn1cc(C2=C(c3cn(CCCSC(=N)N)c4ccccc34)C(=O)NC2=O)c2ccccc21 [RO-318220],did not prevent,no significant effect,
O=c1c(-c2ccc(O)cc2)coc2cc(O)cc(O)c12 [genistein],did not prevent,no significant effect,
N-(2-hydroxypropyl)-3-trimethylammonium chitosan chloride [600-HPTChC65],,,increased ATPase activity
